Experimental data from patent publication US20220000860A1, “COMPOUNDS, COMPOSITIONS, AND METHODS FOR TREATING HUMAN IMMUNODEFICIENCY VIRUS” (OYAGEN, INC., priority 2017, published 2022).
Where two headings read alike, the source gives them in different places.

How the values were obtained:
[1] = target: T1, recombinant HIV (pNL4-3) heterodimeric (p66/p51) Reverse Transcriptase (Human immunodeficiency virus type 1 group M subtype B, UniProt P12497); assay: reverse transcriptase assay; assay type: biochemical
T1 construct: purified recombinant HIV (pNL4-3) heterodimeric (p66/p51) Reverse Transcriptase (RT); purchased
Protocol: For the assays listed in Table I, the integrase assay was conducted using the XpressBio HIV-1 Integrase Assay Kit according to the manufacture's protocol. The protease assay was conducted with the Anthranilyl (Abz)-HIV Protease Substrate (Bachem H-2992), a hexapeptide FRET substrate derived from the p24/p15 cleavage site of the viral gag-pol poly-protein, which allows the screening of potential HIV protease inhibitors. 1 mM Abz-Substrate was diluted with Assay Buffer to a working stock of 20 μM. A 50 μM stock HIV-1 protease (received from Sook-kyung Lee (UNC)) was diluted with Assay Buffer (50 mM HEPES, pH 6.8, 150 mM NaCl, and 1% DMSO) to a working stock of 100 nM. 2 μl 100 nM HIV-1 Protease along with 2 uL 20 μM Abz Substrate was added into each well and incubated at room temperature (avoiding light) for 1 hour before being read on an Envision plate reader (Perkin Elmer) excitation at 280 nm, emission at >435 nm. The reverse transcriptase assay utilized purified recombinant HIV (pNL4-3) heterodimeric (p66/p51) Reverse Transcriptase (RT) that was purchased from a commercially available source. The assay was performed in 96-well filter plate, where RT activity was determined by the incorporation of radiolabeled deoxyribonucleotides into the newly synthesized DNA strand. The RT reaction mixture contained in vitro transcribed viral RNA derived from the HIV-1NL4-3 5′-LTR region (position 454 to 652) and primer that is complementary to the primer binding site (PBS, nucleotide residues nucleotides 636 to 652), radiolabeled deoxyribonucleotide, dNTPs and reverse transcriptase. Briefly, the reaction was carried out in a volume of 50 μl containing 50 mM Tris HCl, pH 7.8, 50 mM KCl, 5 mM MgCl2, 1 mM DTT, 50 μM each of dATP, dCTP, dGTP, 50 nM dTTP, 1 μCi of [^3H] dTTP (70-90 Ci/mM) and 5 nM template/primer. The reaction was initiated by the addition of 10 nM RT. For compound screening, serially diluted test articles were added to the reaction followed by the addition of RT. The reaction mixture was incubated at 37° C. for 1 h, and then quenched by the addition of ice-cold trichloroacetic acid (TCA) to the final concentration of 10%. The plate was incubated at 4° C. for 1 h to precipitate the synthesized DNA, then rinsed 3-times with 10% TCA and 1 time with 70% ethanol. After addition of 25 μl scintillation fluid to completely dried wells, radioactivity is counted by MicroBeta scintillation counter. The reduction of radioactivity represents the potency of compound inhibition.

00KE_KER2008 (Subtype A) = assay: PBMC Acute Infection, 00KE_KER2008; assay type: cell-based, HIV
Protocol: (§1) PHA-stimulated cells from at least two normal donors were pooled (i.e. mixed together), diluted in fresh medium to a final concentration of 1×10^6 cells/mL, and plated in the interior wells of a 96-well round bottom microplate at 50 μL/well (5×10^4 cells/well). Pooling of mononuclear cells from more than one donor was used to minimize the variability observed between individual donors in quantitative and qualitative differences in HIV infection and overall response to the PHA and IL-2 of primary lymphocyte populations. Each plate contained virus control wells (cells plus virus) and experimental wells (drug plus cells plus virus) of either 00KE_KER2008 (Subtype A), IIIB (Subtype B), or 98US_MSC5016 (Subtype C). Test drug dilutions were prepared at a 2×concentration and 100 μL of each concentration was placed in appropriate wells. Fifty μL of a predetermined dilution of virus stock was placed in each test well (final MOI≅0.1). After this period, cell-free supernatant samples were collected for analysis of reverse transcriptase (RT) activity with an RT assay. […] In the Table below SI50=CC50/EC50 and SI90=CC90/EC90.

98US_MSC5016 (Subtype C) = assay: PBMC Acute Infection, 98US_MSC5016; assay type: cell-based, HIV
Protocol: as §1

[2] = target: T2, pNL4-3 Vif (Vif multimerization) (Human immunodeficiency virus type 1 group M subtype B, UniProt P12504); assay: Vif FqRET Multimerization Assay; assay type: cell-based, HIV
T2 construct: expressed in transfected cells; host or cells: HEK293T
T2 sequence (P12504 whole entry): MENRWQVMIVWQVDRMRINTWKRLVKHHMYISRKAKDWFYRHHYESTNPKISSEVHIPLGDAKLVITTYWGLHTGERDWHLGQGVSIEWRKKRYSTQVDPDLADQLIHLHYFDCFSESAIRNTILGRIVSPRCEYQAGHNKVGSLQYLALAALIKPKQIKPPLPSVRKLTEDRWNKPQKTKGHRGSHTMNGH
Description: The quenched fluorescence resonance energy transfer (FqRET) cell-based assay utilized expression of pNL4-3 Vif (accession no. M19921) tagged separately with either a EGFP fluorophore (EGFP-V5-Vif) or a REACh2 quencher (Vif-HA-REACh2) in the pIRES-P vector. The Vif multimerization assay was established through robotic co-transfection of HEK293T (293T) cells with Turbofect (Thermo) and optimized for input plasmid ratio (1:4, fluorophore to quencher) to achieve maximum quench of fluorescent signal. EGFP fluorescence was quantified 24 hours after transfection with a BioTek Synergy4 plate reader (ex=485 nm, em=528 nm) followed by the addition of 0-30 μM compound. The plates were read a second time 24 hours after compound addition. The differential between the first and second read in each well was quantified relative to the DMSO control to determine the change in relative fluorescence units (ΔRFU)
The interaction of 2 molecules of Vif (i.e. dimerization) enables quenching of Enhanced Green Fluorescent Protein (EGFP) signal by Resonance Energy Accepting Chromophore 2 (REACh2), a dark mutant of yellow fluorescent protein that is capable of accepting the EGFP donor fluorescence and quenching its signal without an acceptor signal.

[3] = PBMC Acute Infection, cytotoxicity (CC50/CC90); assay type: cell-based; conditions: human
Protocol: as §1

PBMCs = assay: PBMC Acute Infection, cytotoxicity (CC50/CC90); assay type: cell-based
Protocol: as §1

IIIB (Subtype B) = assay: PBMC Acute Infection, IIIB; assay type: cell-based, HIV
Protocol: as §1

topoisomerase I (TOP1) [4] = target: T3, topoisomerase I (TOP1) (Homo sapiens, UniProt P11387); assay: topoisomerase I inhibition
T3 sequence (P11387 1-765): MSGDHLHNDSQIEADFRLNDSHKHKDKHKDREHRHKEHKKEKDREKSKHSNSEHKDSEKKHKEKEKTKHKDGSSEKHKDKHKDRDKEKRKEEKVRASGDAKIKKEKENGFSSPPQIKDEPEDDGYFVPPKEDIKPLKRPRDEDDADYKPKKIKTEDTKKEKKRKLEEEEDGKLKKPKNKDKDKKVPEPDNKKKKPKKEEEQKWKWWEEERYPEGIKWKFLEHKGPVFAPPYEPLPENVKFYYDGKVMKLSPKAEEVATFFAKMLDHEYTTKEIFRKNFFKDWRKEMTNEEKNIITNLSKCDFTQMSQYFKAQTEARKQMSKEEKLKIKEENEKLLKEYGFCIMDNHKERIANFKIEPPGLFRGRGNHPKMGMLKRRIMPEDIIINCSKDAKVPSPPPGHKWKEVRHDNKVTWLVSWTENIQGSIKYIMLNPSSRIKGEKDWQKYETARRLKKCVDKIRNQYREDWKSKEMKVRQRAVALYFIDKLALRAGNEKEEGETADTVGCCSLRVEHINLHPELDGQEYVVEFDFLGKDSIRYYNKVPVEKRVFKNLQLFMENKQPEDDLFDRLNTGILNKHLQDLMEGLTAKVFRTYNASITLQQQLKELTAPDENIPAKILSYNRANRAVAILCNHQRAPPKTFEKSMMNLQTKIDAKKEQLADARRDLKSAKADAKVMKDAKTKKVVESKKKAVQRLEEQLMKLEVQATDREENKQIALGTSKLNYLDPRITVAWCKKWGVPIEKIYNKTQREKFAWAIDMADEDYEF

[5] = system: Vif-dependent APOBEC3G degradation; assay: Vif-Dependent APOBEC3G Degradation Assay; assay type: cell-based, HIV
Protocol: APOBEC3G-V5-mCherry was stably expressed from the pIRES-P vector in 293T cells under puromycin selection. Fifty ng of plasmid expressing Vif-HA (accession no. AB573087) was transfected into the cells in 384-well format with Turbofect on a liquid handling robot. Four hours after transfection the compounds were added to cells in a range from 0-15 μM. Twenty-four hours after compound addition mCherry fluorescence was read on a BioTek Synergy4 plate reader (ex=587 nm, em=610 nm). Relative fluorescence units (RFU) from compound treated wells were quantified using thresholds set by the −Vif (positive control) and +Vif (negative control).

topoisomerase I (TOP1) [6] = target: T3, topoisomerase I (TOP1); conditions: comparison statement; cited from earlier work
[7] = row of isolate 00KE-KER2008, subtype A
[8] = row of isolate 98US_MSC5016, subtype C
[9] = Human immunodeficiency virus 1, read-out: A3G degradation at
[10] = Human immunodeficiency virus 1, PBMC
[11] = Human immunodeficiency virus 1, IIIB

## Cc1ccnc2c1NC(=O)c1cccnc1N2C1CC1 [nevirapine, reference compound]
[1]
  IC50: 230 nM

## CC[C@@]1(O)C(=O)NCc2c1cc1n(c2=O)Cc2cc3c(N)cccc3nc2-1 [Compound O5-9A, (S)-10-Amino-4-ethyl-4-hydroxy-1,2-dihydroquinolino[2′,3′:3,4]pyrrolo[1,2-b][2,7]naphthyridine-3,14(4H,12H)-dione]
00KE_KER2008 (Subtype A); Human immunodeficiency virus 1, PBMC, isolate 00KE-KER2008, subtype A, RT activity readout, read-out: EC50
  EC50: 50 nM
00KE_KER2008 (Subtype A); Human immunodeficiency virus 1, PBMC, isolate 00KE-KER2008, subtype A, RT activity readout, read-out: EC90
  EC90: 230 nM
98US_MSC5016 (Subtype C); Human immunodeficiency virus 1, PBMC, isolate 98US_MSC5016, subtype C, RT activity readout, read-out: EC50
  EC50: 60 nM
98US_MSC5016 (Subtype C); Human immunodeficiency virus 1, PBMC, isolate 98US_MSC5016, subtype C, RT activity readout, read-out: EC90
  EC90: 220 nM
[2]
  EC50: 3870 nM
  Vif multimerization (result in words): block
[3]; [7]
  CC50: 9320 nM
  CC90: > 100000 nM
[3]; [8]
  CC50: 9320 nM
[3]; row of isolate IIIB, subtype B
  CC50: 10000 nM
PBMCs; [8]
  CC90: > 100000 nM
PBMCs; row of isolate IIIB, subtype B
  CC90: > 100000 nM
IIIB (Subtype B); Human immunodeficiency virus 1, isolate IIIB, subtype B, RT activity readout, read-out: EC50
  EC50: 150 nM
IIIB (Subtype B); Human immunodeficiency virus 1, isolate IIIB, subtype B, RT activity readout, read-out: EC90
  EC90: 310 nM
Topoisomerase I (TOP1) [4]
  inhibition of topoisomerase I (TOP1) (result in words): do not inhibit
[5]
  Vif-dependent A3G degradation (result in words): block
[5]; Human immunodeficiency virus 1, HEK-293T, 24 h, read-out: EC50, A3G Degradation Assay
  EC50: 1200 nM
[5]; [9]
  EC50: 1000 nM

## CC[C@@]1(O)C(=O)OCc2c1cc1n(c2=O)Cc2cc3ccccc3nc2-1 [camptothecin]
Topoisomerase I (TOP1) [6]
  inhibition of topoisomerase I (TOP1) (result in words): inhibit

## CCc1c2c(nc3ccc(OC(=O)N4CCC(N5CCCCC5)CC4)cc13)-c1cc3c(c(=O)n1C2)CNC(=O)[C@]3(O)CC [Irino-L, (S)-4,11-diethyl-4-hydroxy-3,14-dioxo-1,2,3,4,12,14-hexahydroquinolino[2′,3′:3,4]pyrrolo[1,2-b][2,7]naphthyridin-9-yl [1,4′-bipiperidine]-1′-carboxylate]
00KE_KER2008 (Subtype A); [10]
  EC50: 2260 nM
  EC90: 7710 nM
98US_MSC5016 (Subtype C); [10]
  EC50: 1850 nM
  EC90: 7110 nM
[3]; [7]
  CC50: 17700 nM
  CC90: 82800 nM
IIIB (Subtype B); [11]
  EC50: 2290 nM
  EC90: 7920 nM
[5]; [9]
  EC50: 5000 nM
